Data: paper PMC4930906 (The Korean Journal of Physiology & Pharmacology : Official …, 2016)

Legend:
TRESK = molecular target: T1, TRESK (Mus musculus, UniProt Q6VV64); test: whole-cell patch clamp, HEK293, voltage ramp, current at +[…] mV; type: cell-based
T1 sequence (Q6VV64 1-394): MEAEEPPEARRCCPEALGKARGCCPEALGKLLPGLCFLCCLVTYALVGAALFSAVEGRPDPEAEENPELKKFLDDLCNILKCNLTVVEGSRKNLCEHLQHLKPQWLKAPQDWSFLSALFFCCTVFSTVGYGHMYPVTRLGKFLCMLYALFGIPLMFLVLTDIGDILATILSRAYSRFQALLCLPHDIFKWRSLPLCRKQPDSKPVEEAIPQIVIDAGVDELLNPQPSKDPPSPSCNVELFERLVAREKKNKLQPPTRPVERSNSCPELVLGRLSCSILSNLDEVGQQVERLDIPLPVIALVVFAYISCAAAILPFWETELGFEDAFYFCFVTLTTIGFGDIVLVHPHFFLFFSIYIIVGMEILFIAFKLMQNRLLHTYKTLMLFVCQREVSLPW

TREK-2 = molecular target: T2, TREK-2 (Rattus norvegicus, UniProt Q9JIS4); test: as above; type: cell-based
T2 sequence (Q9JIS4 1-538): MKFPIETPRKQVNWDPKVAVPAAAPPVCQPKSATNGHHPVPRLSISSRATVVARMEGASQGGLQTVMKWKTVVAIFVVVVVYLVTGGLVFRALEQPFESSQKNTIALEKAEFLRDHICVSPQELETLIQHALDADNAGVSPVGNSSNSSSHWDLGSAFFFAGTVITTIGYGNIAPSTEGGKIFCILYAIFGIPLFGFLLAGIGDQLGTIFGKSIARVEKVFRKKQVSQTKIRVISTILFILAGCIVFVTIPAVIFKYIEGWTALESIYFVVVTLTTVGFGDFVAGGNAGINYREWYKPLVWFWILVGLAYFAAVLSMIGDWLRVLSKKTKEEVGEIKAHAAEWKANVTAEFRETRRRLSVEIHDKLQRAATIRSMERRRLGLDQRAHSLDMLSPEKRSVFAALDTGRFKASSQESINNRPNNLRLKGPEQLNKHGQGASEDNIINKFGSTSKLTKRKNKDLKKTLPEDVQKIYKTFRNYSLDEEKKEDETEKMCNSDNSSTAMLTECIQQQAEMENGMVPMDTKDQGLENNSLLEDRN

Molecule `CN(C)CCCC1(c2ccc(F)cc2)OCc2cc(C#N)ccc21` (stereo not shown) [citalopram] has an IC50 (TRESK) of 168 ± 11 µM and an IC50 (TREK-2) of 110 ± 9 µM.

With `CC(NC(C)(C)C)C(=O)c1cccc(Cl)c1` (stereo not shown) [bupropion] the IC50 (TRESK) was 160 ± 17 µM.

In the case of `CC(=O)Nc1ccc(O)cc1` [acetaminophen], the IC50 (TRESK) is reported as 220 ± 26 µM.

`COc1ccc2cc(CCC(C)=O)ccc2c1` [nabumetone] gave an IC50 (TRESK) of 557 ± 35 µM.

Molecule `CN(C)CCC[C@@]1(c2ccc(F)cc2)OCc2cc(C#N)ccc21` [escitalopram] has an IC50 (TRESK) of 49 ± 7 µM and an IC50 (TREK-2) of 102 ± 9 µM.

`CC(C)Cc1ccc(C(C)C(=O)O)cc1` (stereo not shown) [ibuprofen] gave an IC50 (TRESK) of 889 ± 10 µM.

With `CN(C)CCC=C1c2ccccc2CCc2ccccc21` [amitriptyline] the IC50 (TRESK) was 26 ± 5 µM and the IC50 (TREK-2) was 16 ± 4 µM.
